Measured values: PubChem BioAssay (NCI)
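Exposure lasted 48 hours, with cells grown in 96-well plates and compounds tested at five concentrations. GI50 = concentration required for 50% inhibition of growth. At the TGI there is no net growth.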

Columns and labels:
Test in all cases: NCI anticancer screen, dose series, 48 h
ACHN renal = tested on: ACHN renal
CAKI-1 renal = tested on: CAKI-1 renal
EKVX NSCLC = tested on: EKVX NSCLC
HCT-15 colon = tested on: HCT-15 colon
HOP-92 NSCLC = tested on: HOP-92 NSCLC
MALME-3M melanoma = tested on: MALME-3M melanoma
OVCAR-4 ovarian = tested on: OVCAR-4 ovarian
UO-31 renal = tested on: UO-31 renal
MCF7 breast = tested on: MCF7 breast
NCI/ADR-RES ovarian = tested on: NCI/ADR-RES ovarian

Compound	TGI (ACHN renal) [µM]	TGI (CAKI-1 renal) [µM]	TGI (EKVX NSCLC) [µM]	TGI (HCT-15 colon) [µM]	TGI (HOP-92 NSCLC) [µM]	TGI (MALME-3M melanoma) [µM]	TGI (OVCAR-4 ovarian) [µM]	TGI (UO-31 renal) [µM]	GI50 (ACHN renal) [µM]	GI50 (CAKI-1 renal) [µM]	GI50 (EKVX NSCLC) [µM]	GI50 (HCT-15 colon) [µM]	GI50 (MALME-3M melanoma) [µM]	GI50 (MCF7 breast) [µM]	TGI (MCF7 breast) [µM]	GI50 (NCI/ADR-RES ovarian) [µM]	TGI (NCI/ADR-RES ovarian) [µM]	GI50 (OVCAR-4 ovarian) [µM]	GI50 (UO-31 renal) [µM]	GI50 (HOP-92 NSCLC) [µM]
Cc1ccccc1C(=O)c1ccccc1O	> 100	> 100	> 100	> 100	> 100	> 100	> 100	> 100												
COc1ccc(-n2nnnc2-c2c[nH]c3c(F)cc(F)cc23)cc1	> 100	> 100	> 100	> 100		> 100	> 100	> 100	> 100	> 100	> 100	> 100	> 100	> 100	> 100	40.6	> 100	55	54	
COC(=O)C(=O)OC1(C(C)=O)CC2(c3ccccc3)OC1(c1ccccc1)c1ccccc12 (stereo not drawn)		39.9	42	34.1	27	35.2	51.1	29.9												
CC(=O)[CH-]C(=O)c1ccccc1.CC(=O)[CH-]C(=O)c1ccccc1.CC1(C)C2CCC1(C)C([O-])C2.CC1(C)C2CCC1(C)C([O-])C2.[Ti+4]	> 100	> 100	> 100	> 100	34.9	30.2	> 100	93.8	54.4	51.4	69.6	30.9	12.4					97.3	27.8	12.9
C#CCC(Cc1cnc2nc(N)nc(N)c2n1)c1ccc(C(=O)N[C@@H](CCC(=O)O)C(=O)O)cc1 (stereo partly drawn)	> 100	> 100	> 100	> 100		> 100	> 100	> 100	< 0.01	< 0.01		< 0.01	> 44	< 0.01	> 100	< 0.01	> 100	0.975	< 0.01	
COc1cc(C)c(Cl)cc1C1=NN(c2ccc(S(N)(=O)=O)cc2)C(/C=C/c2ccccc2)C1 (stereo not drawn)	13.3	19.1	22	> 100		9.98	24.9	12.6	3.2	2.7	2.68	3.11	2.68	2.55	9.13	3.46	37.7	2.77	2.54	
CC1(CO)OC(n2cc(C(=O)NC(=O)OCc3ccccc3)c(=O)[nH]c2=O)CC1O (stereo not drawn)	> 100	> 100		> 100	> 100	> 100		> 100												
CCCCCCCCCCCCCC(=O)CC(=O)c1c(O)cccc1O	74.5	76.1	68.8	58.8	89.7	92	> 100	> 100												
N#Cc1c(NN)nc(NN)c(C#N)c1-c1ccccc1	> 100	> 100	> 100	> 100	> 100	> 100	> 100	> 100												
Cc1cc(S(N)(=O)=O)c(S/C(CC(C)C)=N\Nc2ccc([N+](=O)[O-])cc2)cc1Cl	17.4	6.85	31.3	31.2		25	20.5	23.6	5.44	2.24	16.6	5.22	12.5	2.36	7.27	5.9	19.2	5.01	11.1	
CC(=O)[CH-]C(=O)c1ccccc1.CC(=O)[CH-]C(=O)c1ccccc1.CC(C)CCCC(C)[C@H]1CCC2[C@@H]3CC=C4C[C@@H]([O-])CC[C@]4(C)C3CC[C@@]21C.CC[O-].[Ti+4] (stereo partly drawn)	> 100	> 100	> 100	> 100	94	75.6	> 100	> 100	61	> 100	66.8	53.8	29.4					91.6	29.4	33.8
O=c1cc2ccccc2nn1Cc1cccc(Cl)c1	> 100	> 100	> 100	> 100	> 100	> 100	> 100	> 100												
C[S+](C)CCOC(=O)C(=[N+]=[N-])c1ccc([N+](=O)[O-])cc1	> 100	> 100	> 100	> 100		> 100	> 100	> 100												
CCCCCC/C=C1\CCC(CN2CCCC2)C1=O (stereo not drawn)	32.3	> 53.5	34.2	22.8	32.4	34.6	49.1	33												
CC(C)c1ccc(C2C3=C(N=C4SCC(=O)N42)C(=O)c2ccccc23)cc1 (stereo not drawn)	> 100	> 100	> 100	> 100	> 100	> 100	> 100	> 100												
CCC/C(=N/N=C(N)N)c1ccc(NC(=O)c2cc3cc(OC)ccc3[nH]2)cc1	33.1			36.1	12.1		18.7	38	13.1			14.5		2.76	12.2	79.7	> 100	3.74	17.9	1.89
O=C(CC1(O)C(=O)Nc2c(Cl)ccc(Cl)c21)c1ccc2ccccc2c1 (stereo not drawn)	26.3	16.5	31	27		25.1	5.92	34.9												
c1ccc2[nH]c(-c3ccc(NN=Nc4ccncc4)cc3)nc2c1	> 100	> 100	54.1	> 100	> 100		> 100	> 100	31.2	5.2	11.2	17.7				> 100	> 100	39.5	43.6	91.5
